# Source: patent US20240025862A1, “SUBSTITUTED N-PHENYLURACILS AND SALTS THEREOF, AND USE THEREOF AS HERBICIDAL ACTIVE SUBSTANCES” (Bayer Aktiengesellschaft, priority 2020, published 2024)
# Like-named read-outs stand apart in the source and are kept apart here.
# How the values were obtained:
# Type in all cases: in vivo
# [1] = tested on: Oryza sativa (ORYSA); experiment: Post-emergence crop plant compatibility, greenhouse pot test (also comparative test C); details: vs untreated controls
# Method in brief: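 Rice and other crops sprayed post-emergence at one-leaf stage (2–3 weeks after sowing) with WP or EC formulations plus 0.5% additive at 600 l/ha water. Visual rating about 3 weeks later versus untreated controls (100% = dead, 0% = like control); suffixes a–c denote different doses.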
# [2] = tested on: Echinochloa crus-galli (ECHCG); experiment: Post-emergence herbicidal action, greenhouse pot test (also comparative test C)
# Method in brief: (§1)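 Visual rating against untreated controls, about 3 weeks after spraying, from 0% (like control) to 100% (plants dead). Weeds were treated at the one-leaf stage, 2–3 weeks after sowing in sandy loam, with aqueous WP/EC spray containing 0.5% additive at 600 l/ha. Doses were ≤20 g/ha, or ≤5 g/ha for comparative test C.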
# [3] = tested on: Setaria viridis (SETVI); experiment: as above; details: Setaria viridis, 504 h; for pest or weed control at 20 g/ha: read-out: Post-emergence action against SETVI; for pest or weed control at 1.25 g/ha / pest or weed control at 5 g/ha: read-out: Post-emergence action against SETVI in %
# Method in brief: as §1
# [4] = tested on: Matricaria inodora (MATIN); experiment: as above; details: Tripleurospermum inodorum, 504 h, read-out: Post-emergence action against MATIN in %
# Method in brief: as §1
# [5] = tested on: Alopecurus myosuroides (ALOMY); experiment: as above; details: for pest or weed control at 20 g/ha: read-out: Post-emergence action at 20 g/ha against ALOMY in %
# Method in brief: as §1
# [6] = tested on: Triticum aestivum (TRZAS); experiment: Post-emergence crop plant compatibility, greenhouse pot test; details: vs untreated controls
# Method in brief: (§2)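 Greenhouse-grown crop plants sprayed post-emergence at the one-leaf stage with WP or EC formulations plus 0.5% additive, at 600 l/ha water. Damage rated visually after about 3 weeks versus untreated controls (0% = like control, 100% = dead); suffixes a/b/c denote different dosages.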
# [7] = tested on: Glycine max (GLXMA); experiment: as above
# Method in brief: as §2
# [8] = tested on: Zea mays (ZEAMX); experiment: as above; details: 1.25 g/ha, vs untreated controls
# Method in brief: as §2
# [9] = tested on: Stellaria media (STEME); experiment: Post-emergence herbicidal action, greenhouse pot test
# Method in brief: (§3)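 Greenhouse-grown weeds in sandy loam were sprayed post-emergence at the one-leaf stage, 2–3 weeks after sowing. Compounds were formulated as WP or EC in water with 0.5% additive at 600 l/ha, at rates of 20 g/ha or less. Visual rating after about 3 weeks used a scale from 0% (like untreated control) to 100% (plants dead).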
# [10] = tested on: Hordeum murinum (HORMU); experiment: as above; details: 20 g/ha, rated visually after about 3 weeks vs untreated controls, 100% = plants have died
# Method in brief: as §3
# [11] = tested on: Pharbitis purpurea (PHBPU); experiment: as above; details: Ipomoea purpurea, 504 h, read-out: Post-emergence action against PHBPU in %
# Method in brief: as §3
# [12] = tested on: Veronica persica (VERPE); experiment: as above; details: Veronica persica, 504 h, read-out: Post-emergence action against VERPE
# Method in brief: as §3
# [13] = tested on: Abutilon theophrasti (ABUTH); experiment: as above; details: Abutilon theophrasti, 504 h; for pest or weed control at 1.25 g/ha: read-out: Post-emergence action at 1.25 g/ha against ABUTH in %; for pest or weed control at 5 g/ha: read-out: Post-emergence action at 5 g/ha against ABUTH in %; for pest or weed control at 20 g/ha: read-out: Post-emergence action at 20 g/ha against ABUTH in %
# Method in brief: as §3
# [14] = tested on: Amaranthus retroflexus (AMARE); experiment: as above; details: Amaranthus retroflexus, 504 h; for pest or weed control at 1.25 g/ha: read-out: Post-emergence action at 1.25 g/ha against AMARE in %; for pest or weed control at 5 g/ha: read-out: Post-emergence action at 5 g/ha against AMARE in %; for pest or weed control at 20 g/ha: read-out: Post-emergence action at 20 g/ha against AMARE in %
# Method in brief: as §3
# [15] = tested on: Avena fatua (AVEFA); experiment: as above; details: Avena fatua, 504 h, read-out: Post-emergence action at 20 g/ha against AVEFA in %
# Method in brief: as §3
# [16] = tested on: Viola tricolor (VIOTR); experiment: as above; details: Viola tricolor, 504 h, read-out: Post-emergence action against VIOTR
# Method in brief: as §3
# [17] = tested on: Polygonum convolvulus (POLCO); experiment: as above; details: Fallopia convolvulus, 504 h, read-out: Post-emergence action against POLCO in %
# Method in brief: as §3
# [18] = tested on: Brassica napus (BRSNW); experiment: Post-emergence crop plant compatibility, greenhouse pot test; details: for Post-emergence action against BRSNW (crop plant compatibility): vs untreated controls
# Method in brief: as §2
# [19] = tested on: Lolium rigidum (LOLRI); experiment: Post-emergence herbicidal action, greenhouse pot test
# Method in brief: as §3
# [20] = 1.25 g/ha, rated visually after about 3 weeks vs untreated controls, 100% = plants have died
# [21] = 5 g/ha, rated visually after about 3 weeks vs untreated controls, 100% = plants have died
# [22] = 20 g/ha, rated visually after about 3 weeks vs untreated controls, 100% = plants have died
compound,measurement,setting,value
"COCCOC(=O)COc1ccccc1Sc1cc(-n2c(=O)cc(C(F)(F)F)n(C)c2=O)c(F)cc1Cl [I.1-1, 2-Methoxyethyl [2-({2-chloro-4-fluoro-5-[3-methyl-2,6-dioxo-4-(trifluoromethyl)-3,6-dihydropyrimidin-1(2H)-yl]phenyl}sulfanyl)phenoxy]acetate]",Post-emergence action against ORYSA (crop plant compatibility),[1]; 1.25 g/ha,10%
same,Post-emergence action against ORYSA (crop plant compatibility),[1]; 5 g/ha,10%
same,pest or weed control at 20 g/ha,"[2]; Echinochloa crus-galli, 504 h, read-out: Post-emergence action against ECHCG in %",80%
same,pest or weed control at 20 g/ha,[3],100%
same,pest or weed control at 1.25 g/ha,[3],100%
same,pest or weed control at 5 g/ha,[3],100%
same,pest or weed control at 5 g/ha,[4],100%
same,pest or weed control at 20 g/ha,[4],100%
same,pest or weed control at 20 g/ha,"[5]; Alopecurus myosuroides, 504 h",80%
same,Post-emergence action against TRZAS (crop plant compatibility),[6]; 1.25 g/ha,20%
same,Post-emergence action against GLXMA in %,[7]; 1.25 g/ha,0%
same,Post-emergence action against GLXMA in %,[7]; 5 g/ha,20%
same,Post-emergence action against ZEAMX (crop plant compatibility),[8],20%
same,Post-emergence action against STEME,[9]; 1.25 g/ha,80%
same,Post-emergence action against STEME,[9]; 5 g/ha,100%
same,Post-emergence action against STEME,[9]; 20 g/ha,100%
same,Post-emergence action at 20 g/ha against HORMU in %,[10],100%
same,pest or weed control at 1.25 g/ha,[11],100%
same,pest or weed control at 5 g/ha,[11],100%
same,pest or weed control at 20 g/ha,[11],100%
same,pest or weed control at 1.25 g/ha,[12],80%
same,pest or weed control at 5 g/ha,[12],100%
same,pest or weed control at 20 g/ha,[12],100%
same,pest or weed control at 1.25 g/ha,[13],100%
same,pest or weed control at 5 g/ha,[13],100%
same,pest or weed control at 20 g/ha,[13],100%
same,pest or weed control at 1.25 g/ha,[14],90%
same,pest or weed control at 5 g/ha,[14],100%
same,pest or weed control at 20 g/ha,[14],100%
same,pest or weed control at 20 g/ha,[15],80%
same,pest or weed control at 1.25 g/ha,[16],100%
same,pest or weed control at 5 g/ha,[16],100%
same,pest or weed control at 20 g/ha,[16],100%
same,pest or weed control at 5 g/ha,[17],100%
same,pest or weed control at 20 g/ha,[17],100%
"Cn1c(C(F)(F)F)cc(=O)n(-c2cc(Oc3ccccc3OCC(=O)OCc3ccccn3)c(Cl)cc2F)c1=O [I.7-276, Pyridin-2-ylmethyl (2-{2-chloro-4-fluoro-5-[3-methyl-2,6-dioxo-4-(trifluoromethyl)-3,6-dihydropyrimidin-1(2H)-yl]phenoxy}phenoxy)acetate]",Post-emergence action against ORYSA (crop plant compatibility),[1]; 1.25 g/ha,0%
same,Post-emergence action at 1.25 g/ha against ECHCG in %,[2]; [20],90%
same,pest or weed control at 5 g/ha,"[2]; Echinochloa crus-galli, 504 h, dosage 5 g/ha, read-out: Post-emergence action against ECHCG in %",100%
same,pest or weed control at 20 g/ha,"[2]; Echinochloa crus-galli, 504 h, dosage 20 g/ha, read-out: Post-emergence action against ECHCG in %",100%
same,pest or weed control at 20 g/ha,[3]; 20 g/ha,100%
same,pest or weed control at 1.25 g/ha,[3]; dosage 1.25 g/ha,100%
same,pest or weed control at 5 g/ha,[3]; dosage 5 g/ha,100%
same,pest or weed control at 1.25 g/ha,[4]; dosage 1.25 g/ha,100%
same,pest or weed control at 5 g/ha,[4]; dosage 5 g/ha,100%
same,pest or weed control at 20 g/ha,[4]; dosage 20 g/ha,100%
same,Post-emergence action at 1.25 g/ha against ALOMY in %,[5]; [20],90%
same,pest or weed control at 5 g/ha,"[5]; Alopecurus myosuroides, 504 h, 5 g/ha, rated visually after about 3 weeks vs untreated controls, 100% = plants have died, read-out: Post-emergence action at 5 g/ha against ALOMY in %",100%
same,pest or weed control at 20 g/ha,"[5]; Alopecurus myosuroides, 504 h, 20 g/ha, rated visually after about 3 weeks vs untreated controls, 100% = plants have died",100%
same,Post-emergence action against TRZAS (crop plant compatibility),[6]; 1.25 g/ha,20%
same,Post-emergence action against TRZAS (crop plant compatibility),[6]; 5 g/ha,20%
same,Post-emergence action against BRSNW (crop plant compatibility),[18]; 1.25 g/ha,20%
same,Post-emergence action at 5 g/ha against BRSNW in %,"[18]; 5 g/ha, crop plant compatibility, observed effects on crop plant in comparison to untreated controls",20%
same,Post-emergence action against BRSNW (crop plant compatibility),[18]; 20 g/ha,20%
same,pest or weed control at 1.25 g/ha,[11]; dosage 1.25 g/ha,100%
same,pest or weed control at 5 g/ha,[11]; dosage 5 g/ha,100%
same,pest or weed control at 20 g/ha,[11]; dosage 20 g/ha,100%
same,pest or weed control at 1.25 g/ha,[12]; 1.25 g/ha,100%
same,pest or weed control at 5 g/ha,[12]; 5 g/ha,100%
same,pest or weed control at 20 g/ha,[12]; 20 g/ha,100%
same,pest or weed control at 1.25 g/ha,[13]; [20],100%
same,pest or weed control at 5 g/ha,[13]; [21],100%
same,pest or weed control at 20 g/ha,[13]; [22],100%
same,Post-emergence action at 5 g/ha against LOLRI in %,[19]; [21],80%
same,pest or weed control at 20 g/ha,"[19]; Lolium rigidum, 504 h, dosage 20 g/ha, read-out: Post-emergence action against LOLRI in %",100%
same,pest or weed control at 1.25 g/ha,[14]; [20],100%
same,pest or weed control at 5 g/ha,[14]; [21],100%
same,pest or weed control at 20 g/ha,[14]; [22],100%
same,pest or weed control at 20 g/ha,[15]; [22],90%
same,pest or weed control at 1.25 g/ha,[16]; 1.25 g/ha,100%
same,pest or weed control at 5 g/ha,[16]; 5 g/ha,100%
same,pest or weed control at 20 g/ha,[16]; 20 g/ha,100%
